Measurements published in patent publication US20060280820A1, “Use of an extract of Aloysia/Verbena/Lippia triphylla/citriodora for the treatment of chronic and/or inflammatory diseases” (priority 2003, published 2006).

Assay: Degradation of glycosaminoglycanes by reactive oxygen species (FIG. 2)
Assay type: biochemical
Conditions: free ferrous ions and hydrogen peroxide; pH value 7.2, 37 degrees Celsius

SMILES: O=C1O[C@H]([C@@H](O)CO)C(O)=C1O [vitamin C]
- degradation of glycosaminoglycanes by reactive oxygen species: enhances the degradation of glycosaminoglycanes
